Assay results: patent publication US8143288B2, “Inhibitors of HCV replication” (priority 2005, dated 2012)

Each molecule was assayed on HCV 1b-377-neo replicon cells (assay: HCV replicon FRET assay). Details: Hepatitis C virus; HCV replicon; read-out: Activity (EC50).
Type: cell-based
Description: The HCV replicon cell line was isolated from colonies as described by Lohman, et. al. (Science 1999, 285, 110-113, expressly incorporated by reference in its entirety) and used for all experiments. The HCV replicon has the nucleic acid sequence set forth in EMBL Accession No.: AJ242652, the coding sequence of which is from nt 1801 to 7758.
The coding sequence of the published HCV replicon was synthesized by Operon Technologies, Inc. (Alameda, Calif.), and the fall-length replicon was then assembled in plasmid pGem9zf(+) (Promega, Madison, Wis.) using standard molecular biology techniques. The replicon consists of (i) the HCV 5′ UTR fused to the first 12 amino acids of the capsid protein, (ii) the neomycin phosphotransferase gene (neo), (iii) the IRES from encephalomyocarditis virus (EMCV), and (iv) HCV NS3 to NS5B genes and the HCV 3′ UTR. Plasmid DNAs were linearized with ScaI and RNA transcripts were synthesized in vitro using the T7 MegaScript transcription kit (Ambion, Austin, Tex.) according to manufacturer's directions.
To generate cell lines, 4×10^6 Huh-7 cells (kindly provided by R. Bartenschlager and available from Health Science Research Resources Bank, Japan Health Sciences Foundation) were electroporated (GenePulser System, Bio-Rad) with 10 micrograms(“μg”) of RNA transcript and plated into 100-mm dishes. After 24 hours, selective media containing 1.0 milligrams/milliliter (“mg/mL”) G418 was added and media was changed every 3 to 5 days. […] These cell lines were maintained at 37° C., 5% CO2, 100% relative humidity in DMEM (Cat#11965-084) Gibco-BRL, Rockville, Md., with 10% heat inactivated calf serum (Sigma), 10 mL of 100× penicillin/streptomycin (Cat#15140-122) Gibco-BRL, Rockville, Md., Geneticin (Cat#10131-027) Gibco-BRL, Rockville, Md. at 1 mg/mL. One of the cell lines (deposited as ATCC Accession No. PTA-4583 in the American Type Culture Collection) which had approximately 3,000 copies of HCV replicon RNA/cell was used for development of the assay (HCV 1b-377-neo replicon cells).
To perform the HCV FRET screening assay, 96-well cell culture plates were used. The FRET peptide (Anaspec, Inc., San Jose, Calif.) (Taliani et al., Anal. Biochem. 1996, 240, 60-67, hereby incorporated by reference in its entirety) contains a fluorescence donor, EDANS, near one end of the peptide and an acceptor, DABCYL, near the other end. The fluorescence of the peptide is quenched by […] resonance energy transfer (RET) between the donor and the acceptor, but as the NS3 protease cleaves the peptide the products are released from RET quenching and the fluorescence of the donor becomes apparent.
The assay reagent was made as follows: 5X luciferase cell culture lysis (Cat#E153A, Promega, Madison, Wis.) diluted to 1X with dH2O, NaCl added to […] final, the FRET peptide diluted to 20 micromolar (“μM”) final from a 2 mM stock. HCV 1b-377-neo replicon cells were trypsinized, placed into each well of a 96-well plate and allowed to attach overnight. The next day, the test compounds were added to columns 1 through 10; column 11 was media plus DMSO only, and column 12 contained a titration of interferon or an HCV specific inhibitor as a control (1000 units for A12, B12, 100 units for C12, D12, 10 units for E12, F12 and 1 unit for G12, H12). […] In addition, naïve Huh-7 cells could also be used to replace wells A12 and B12 as a background control.
At subsequent various times (typically 72 hours), 10% final volume Alamar blue (Cat#00-100, Trek Diagnostics, Cleveland, Ohio) was added to each well. The plates were returned to the incubator for 5 hours and then read in the Cytoflour (PE Biosystems) to determine Alamar blue conversion in each well as a measure of cellular toxicity.
In the case of `CSCC(=O)N1CCC[C@H]1C(=O)Nc1ccc(/C=C/c2ccc(NC(=O)[C@@H]3CCCN3C(=O)c3ccccn3)cc2)cc1` [Example 84], the EC50 is reported as 0.1 to 90 nM.
`Cc1onc(-c2ccccc2)c1C(=O)N1CCC[C@H]1C(=O)Nc1ccc(/C=C/c2ccc(NC(=O)[C@@H]3CCCN3C(=O)c3c(-c4ccccc4)noc3C)cc2)cc1` [Example 204] showed an EC50 of 0.1 to 90 nM.
`O=C(Nc1ccc(/C=C/c2ccc(NC(=O)[C@@H]3CCCN3C(=O)c3ncoc3-c3ccccc3)cc2)cc1)[C@@H]1CCCN1C(=O)c1ncoc1-c1ccccc1` [Example 184] showed an EC50 of 100 to 1000 nM.
In the case of `CC(C)C(=O)N1CCC[C@H]1C(=O)Nc1ccc(/C=C/c2ccc(NC(=O)[C@@H]3CCCN3C(=O)c3cccnc3)cc2)cc1` [Example 89], the EC50 is reported as 0.1 to 90 nM.
Molecule `O=C(Nc1ccc(/C=C/c2ccc(NC(=O)[C@@H]3CCCN3C(=O)c3ncccc3OCc3ccccc3)cc2)cc1)[C@@H]1CCCN1C(=O)c1ncccc1OCc1ccccc1` [Example 183] has an EC50 of 1000 to 10000 nM.
With `Cc1nc(-c2cccnc2)sc1C(=O)N1CCC[C@H]1C(=O)Nc1ccc(/C=C/c2ccc(NC(=O)[C@@H]3CCCN3C(=O)c3sc(-c4cccnc4)nc3C)cc2)cc1` [Example 185] the EC50 was 1000 to 10000 nM.
Molecule `Cn1ccnc1C(=O)N1CCC[C@H]1C(=O)Nc1ccc(/C=C/c2ccc(NC(=O)[C@@H]3CCCN3C(=O)c3nccn3C)cc2)cc1` [Example 64] has an EC50 of 0.1 to 90 nM.
`COC(=O)N1CCC[C@H]1C(=O)Nc1ccc(/C=C/c2ccc(NC(=O)[C@@H]3CCCN3C(=O)OC)cc2)cc1` [Example 52] gave an EC50 of 100 to 1000 nM.
`O=C(Nc1ccc(/C=C/c2ccc(NC(=O)[C@@H]3CCCN3C(=O)c3ccccc3-n3cccc3)cc2)cc1)[C@@H]1CCCN1C(=O)c1ccccc1-n1cccc1` [Example 137] gave an EC50 of 1000 to 10000 nM.
In the case of `CC(C)(C)O[C@@H]1C[C@@H](C(=O)Nc2ccc(/C=C/c3ccc(NC(=O)[C@@H]4C[C@@H](OC(C)(C)C)CN4C(=O)[C@H]4CCCO4)cc3)cc2)N(C(=O)[C@H]2CCCO2)C1` [Example 130], the EC50 is reported as 0.1 to 90 nM.
`Cc1cccc(-c2cccnc2C(=O)N2CCC[C@H]2C(=O)Nc2ccc(/C=C/c3ccc(NC(=O)[C@@H]4CCCN4C(=O)c4ncccc4-c4cccc(C)c4)cc3)cc2)c1` [Example 233] showed an EC50 of 1000 to 10000 nM.
Molecule `Cc1nocc1C(=O)N1CCC[C@H]1C(=O)Nc1ccc(/C=C/c2ccc(NC(=O)[C@@H]3CCCN3C(=O)c3conc3C)cc2)cc1` [Example 201] has an EC50 of 0.1 to 90 nM.
For `CCC(=O)N1CC=C[C@H]1C(=O)Nc1ccc(/C=C/c2ccc(NC(=O)[C@@H]3C=CCN3C(=O)CC)cc2)cc1` [Example 71], the EC50 was 100 to 1000 nM.
`CC(C)(C)OC(=O)N1c2ccccc2C[C@H]1C(=O)Nc1ccc(/C=C/c2ccc(NC(=O)[C@@H]3Cc4ccccc4N3C(=O)OC(C)(C)C)cc2)cc1` [Example 20] gave an EC50 of 100 to 1000 nM.
`O=C(Nc1ccc(/C=C/c2ccc(NC(=O)[C@@H]3CCCN3C(=O)c3n[nH]c4ccccc34)cc2)cc1)[C@@H]1CCCN1C(=O)c1n[nH]c2ccccc12` [Example 212] was tested, and the EC50 was 0.1 to 90 nM.
`CSCC(=O)N1CCC[C@H]1C(=O)Nc1ccc(/C=C/c2ccc(NC(=O)[C@@H]3CCCN3C(=O)Cc3cc(C)no3)cc2)cc1` [Example 94] was tested, and the EC50 was 0.1 to 90 nM.
Work on `[N-]=[N+]=Nc1ccc(C(=O)N2CCC[C@H]2C(=O)Nc2ccc(/C=C/c3ccc(NC(=O)[C@@H]4CCCN4C(=O)Cc4ccccc4)cc3)cc2)cc1` [Example 118] yielded an EC50 of 0.1 to 90 nM.
Work on `CCCOc1ccccc1C(=O)N1C[C@@H](N(C)C)C[C@H]1C(=O)Nc1ccc(/C=C/c2ccc(NC(=O)[C@@H]3C[C@H](N(C)C)CN3C(=O)c3ccccc3OCCC)cc2)cc1` [Example 227] yielded an EC50 of 1000 to 10000 nM.
For `CC(C)C(=O)N1CC=C[C@H]1C(=O)Nc1ccc(/C=C/c2ccc(NC(=O)[C@@H]3C=CCN3C(=O)C(C)C)cc2)cc1` [Example 73], the EC50 was 100 to 1000 nM.
For `CCc1ccncc1C(=O)N1CCC[C@H]1C(=O)Nc1ccc(/C=C/c2ccc(NC(=O)[C@@H]3CCCN3C(=O)c3cnccc3CC)cc2)cc1` [Example 197], the EC50 was 100 to 1000 nM.
With `O=C(Cc1ccccc1)Nc1ccc(/C=C/c2ccc(NC(=O)[C@@H]3CCCN3C(=O)Cc3ccccc3)cc2)cc1` [Example 254] the EC50 was 100 to 1000 nM.
`CCO[C@@H]1C[C@@H](C(=O)Nc2ccc(/C=C/c3ccc(NC(=O)[C@@H]4C[C@H](OCC)CN4C(=O)OCc4ccccc4)cc3)cc2)N(C(=O)OCc2ccccc2)C1` [Example 16] showed an EC50 of 1000 to 10000 nM.
In the case of `CC(=O)N1CC=C[C@H]1C(=O)Nc1ccc(/C=C/c2ccc(NC(=O)[C@@H]3C=CCN3C(=O)Cc3cccnc3)cc2)cc1` [Example 219], the EC50 is reported as 0.1 to 90 nM.
`O=C(Nc1ccc(/C=C/c2ccc(NC(=O)[C@@H]3CCCN3C(=O)[C@@H]3CCCN3Cc3ccccc3)cc2)cc1)[C@@H]1CCCN1C(=O)[C@@H]1CCCN1Cc1ccccc1` [Example 164] gave an EC50 of 1000 to 10000 nM.
Molecule `CC(C)(C)OC(=O)N1CC(C(=O)N2CCC[C@H]2C(=O)Nc2ccc(/C=C/c3ccc(NC(=O)[C@@H]4CCCN4C(=O)C4CN(C(=O)OC(C)(C)C)C4)cc3)cc2)C1` [Example 112] has an EC50 of 100 to 1000 nM.
Work on `COc1ccc(C(=O)N2CCC[C@H]2C(=O)Nc2ccc(/C=C/c3ccc(NC(=O)[C@@H]4CCCN4C(=O)c4ccc(OC)nc4OC)cc3)cc2)c(OC)n1` [Example 193] yielded an EC50 of 1000 to 10000 nM.
With `O=C(Nc1ccc(/C=C/c2ccc(NC(=O)[C@@H]3CCCN3C(=O)Cc3ccccc3)cc2)cc1)c1ccccc1Oc1ccccc1` [Example 266] the EC50 was 1000 to 10000 nM.
With `CCO[C@H]1C[C@@H](C(=O)Nc2ccc(/C=C/c3ccc(NC(=O)[C@@H]4C[C@H](OCC)CN4C(=O)OCc4ccccc4)cc3)cc2)N(C(=O)OCc2ccccc2)C1` [Example 18] the EC50 was 1000 to 10000 nM.
In the case of `C[C@@](O)(C(=O)N1CCC[C@H]1C(=O)Nc1ccc(/C=C/c2ccc(NC(=O)[C@@H]3CCCN3C(=O)[C@@](C)(O)c3ccccc3)cc2)cc1)c1ccccc1` [Example 299], the EC50 is reported as 0.1 to 90 nM.
Molecule `O=C(Nc1ccc(/C=C/c2ccc(NC(=O)[C@@H]3CCCN3C(=O)c3cn[nH]c3)cc2)cc1)[C@@H]1CCCN1C(=O)c1cn[nH]c1` [Example 77] has an EC50 of 0.1 to 90 nM.
`COCC(=O)N1CCC[C@H]1C(=O)Nc1ccc(/C=C/c2ccc(NC(=O)[C@@H]3CCCN3C(=O)c3cccnc3)cc2)cc1` [Example 87] was tested, and the EC50 was 0.1 to 90 nM.
`O=C(Nc1ccc(/C=C/c2ccc(NC(=O)[C@@H]3CCCN3C(=O)[C@H]3CCCO3)cc2)cc1)C1CCC1` [Example 262] showed an EC50 of 100 to 1000 nM.
For `O=C(Nc1ccc(/C=C\c2ccc(NC(=O)[C@@H]3C[C@@H](O)CN3C(=O)OCc3ccccc3)cc2)cc1)[C@@H]1C[C@@H](O)CN1C(=O)OCc1ccccc1` [Example 8], the EC50 was 100 to 1000 nM.
Molecule `O=C(Nc1ccc(/C=C/c2ccc(NC(=O)[C@@H]3CCCN3C(=O)[C@H]3CCCO3)cc2)cc1)[C@@H]1CCCN1C(=O)[C@H]1CCCO1` [Example 110] has an EC50 of 0.1 to 90 nM.
In the case of `Cc1nc(C)c(C(=O)N2CCC[C@H]2C(=O)Nc2ccc(/C=C/c3ccc(NC(=O)[C@@H]4CCCN4C(=O)c4sc(C)nc4C)cc3)cc2)s1` [Example 203], the EC50 is reported as 100 to 1000 nM.
`O=C(NC1CCCC1)O[C@@H]1C[C@@H](C(=O)Nc2ccc(/C=C/c3ccc(NC(=O)[C@@H]4C[C@@H](O)CN4C(=O)OCc4ccccc4)cc3)cc2)N(C(=O)OCc2ccccc2)C1` [Example 248] was tested, and the EC50 was 1000 to 10000 nM.
`O=C(Cc1cccnc1)Nc1ccc(/C=C/c2ccc(NC(=O)[C@@H]3CCCN3C(=O)Cc3cccnc3)cc2)cc1` [Example 270] gave an EC50 of 0.1 to 90 nM.
In the case of `CCOc1ccccc1C(=O)N1CCC[C@H]1C(=O)Nc1ccc(/C=C/c2ccc(NC(=O)[C@@H]3CCCN3C(=O)c3ccccc3OCC)cc2)cc1` [Example 158], the EC50 is reported as 1000 to 10000 nM.
Molecule `CC(C)c1sc(Cl)nc1C(=O)N1CCC[C@H]1C(=O)Nc1ccc(/C=C/c2ccc(NC(=O)[C@@H]3CCCN3C(=O)c3nc(Cl)sc3C(C)C)cc2)cc1` [Example 186] has an EC50 of 100 to 1000 nM.
